Measured values as given in patent US20050272068A1, “UCH-L1 expression and cancer therapy” (The Brigham and Women's Hospital, Inc., priority 2004, published 2005).
Entries after “also recorded” stand apart in the source; their conditions may differ.

Tests used:
α-synuclein [1] = test: alpha-synuclein degradation assay in transfected COS-7 cells (quantitative Western blotting); format: cell-based; conditions: 35 μM lactacystin 24 hours, normalized against actin, defines the 100% reference
From the text: Plasmids: C220S cDNA was generated by PCR site-specific mutagenesis. For the PCR, the 5′ primer is uchforw ([…]) (SEQ ID NO: 5), and 3′ primer is uchc220s ([…] TGCTGAGAGC) (SEQ ID NO: 6). Wt UCH-L1 served as the template. The PCR fragment was inserted into pcDNA vector. For S18YC220S mutant, S18Y UCH-L1 served as the template in PCR. For the FLAG tagged UCH-L1, the 5′ primer is FLAGuchforw ([…] GCAGCTCAAGCCGATGGAG) (SEQ ID NO: 7), and the 3′ primer is uchrev ([…]) (SEQ ID NO: 8). Wt UCH-L1 or C220S served as the template. PCR fragment was purified and inserted into pcDNA vector. For the FLAG tagged UCH-L3, the 5′ primer is L3HindIII ([…] CTG) (SEQ ID NO: 9), the 3′primer is L3XhoISAA (ATCCTCGAGCTATGCT GCAGAAAGAGCAATCGCA) (SEQ ID NO: 10). For the UCH-L3 CKAA variant, the 5′ primer is L3 HindIII and the 3′ primer is L3XhoICKAA (ATCCTCGAGCTA […]) (SEQ ID NO: 11). α-synuclein degradation assay: Liphitamine 2000 was used to transfect COS-7 cells according to the Invitrogen protocol. Transfected cells were cultured at 37° C. for 48 hours before being treated with 35 μM lactacystin or DMSO. After 24 hours of incubation, the cells were lysed with Tris buffer (50 mM Tris, 2% SDS, 0.1% NP-40), and subjected to SDS-PAGE, followed by quantitative Western blotting. […]

SH-SY5Y cells = test: alpha-synuclein toxicity in SH-SY5Y cells infected with alpha-synuclein-expressing adenovirus (Trypan blue viable cell counting, MTT assay); format: cell-based; conditions: SH-SY5Y cells overexpressing alpha-synuclein via adenoviral vector, compounds for 48 hours, vs DMSO
Procedure: (§1) Viral Infection: Viral infection and MTT assay in SH—SY5Y cells: The viruses were amplified and purified according to the published procedure. SH—SY5Y cells were grown on 100 mm petri-dishes and induced with 100 nM RA for 3-5 days before the virus infection with M.I.O at 75. Viruses were diluted with DPBS to desired M.I.O. After four hours of incubation, 10 ml growth medium was added. On the second day, cells were splitted into 96-well plates and treated with compounds for next 48 hours. The growth medium in each well was replaced with growth medium with 5 ug/ml MTT. Medium was removed after three hours incubation, and 200 ul isopropyl (0.04N HCl) was added into each well. The signal was read at 570 nm.
Viable cell counting: At stated time poins, SH—SY5Y cells were trypsinized with 100 ul trypsin-EDTA for 1 minute and neutralized with 400 ul growth medium. Cell suspension was made up by mixing 0.2 ml of cells in growth medium, 0.3 ml of HBSS and 0.5 ml of 0.4% Trypan Blue solution. Viable cell numbers were counted by standard cell counting chamber.
Since α-synuclein neurotoxicity is dose-dependent, it follows that accumulation of α-synuclein, caused by UCH-L1 farnesylation, should promote its toxicity. […] These cells express high endogenous levels of UCH-L1. […] The unit of y-axis is 10^5/ml. (F) Cell viability was assessed by the amount of metabolic activity using MTT assay. […]

H358 = test: Cell growth by counting living cells as a function of time, H358; format: cell-based; conditions: 100 nM FTI-277, H358 does not express UCH-L1, vs DMSO control
Procedure: (§2) To test the effect of farnesyl transferase inhibitor in a cell culture model, H1299 and H358 (FIG. 5B) were treated with 100 nM FTI-277 or DMSO. As a comparison, H1299 was also treated with 5 μM LDN-57414 (UCH-L1 inhibitor), which we have previously shown to increase H1299 cell proliferation (Liu et al 2003). Cell growth was quantified by counting the number of living cells as a function of time. […] The initial acceleration of cell growth in H1299, thus, may be the consequence of inhibition on UCH-L1 farnesylation. This possibility may explain the minimal clinical activity of farnesyl transferase inhibitor in treating patients with NSCLC.

UCH-L1 [2] = test: UCH-L1 species in SH-SY5Y cells by 2D electrophoresis and Western blotting (membrane, cytosolic, total); format: cell-based
Procedure: Membrane fractionation: Cells were harvested by scraping and washed with PBS. Cell pellet was suspended in lysis buffer (50 mM Tris-HCl, 1 mM EDTA) supplemented with protease inhibitor cocktail (Sigma) and homogenized by passing through 26G needles 10 times. Suspension was clarified by spinning at 600 g for 5 minutes. Clarified suspension was ultracentrifuged at 100,000 g for 2 hours and separated into membrane and cytosol. Membrane fraction was washed with washing buffer (50 mM Tris-HCl, 1 mM EDTA 1M NaCl), and pelleted each time with bench-top centrifuge.
2D electrophoresis: For the isolation of total cellular protein, cultured SH—SY5Y cells maintained as described above were rinsed with ice-cold PBS. Cells were lysed in 1 ml dSDS buffer (50 mM Tris-HCl, pH 8.0 0.1% SDS) supplemented with protease inhibitor cocktail. Lysates were boiled for 3 min, and were treated with Dnase and Rnase as described. Lysates were precipitated with ice-cold acetone for at least 2 hours, and pellets were resuspended in 2D sample buffer (8M urea, 0.5% CHAPS, 0.2% DTT, 0.5% IPG buffer, 0.002% bromophenol blue). 2D electrophoresis was carried out according to manufacture's protocol (Amersham Life Science). 7 cm pH 4-7 strips were used. For SH—SY5Y membrane fraction, culture SH—SY5Y cells were rinsed with cold PBS and harvested with lysis buffer (50 mM Tris-HCl, pH 8.0, 1 mM ZnAc2, 250 mM sucrose). Lysate was passed through 25 G needles for several times and spun at 1000 g for 5 min. Supernatant was centrifuged at 200,000 g for 2 hours. Pellet was extensively washed with lysis buffer and extracted with cold acetone. Pellet was resuspended in 2D sample buffer.
Western Blotting: Following transfer of SDS gels onto NC membrane, all membranes were blocked with 5% non-fat milk in TBST (50 mM Tris-HCl pH7.4, 150 mM NaCl, 0.1% Tween 20), and incubated with primary antibody overnight with 1% BSA in TBST, washed three times with TBST, and incubated with horseradish peroxidase-conjugated secondary antibody for 1 hour (Promega). Bound antibodies were detected using enhanced chemiluminascence (NEM). […]

H1299 = test: Cell growth by counting living cells as a function of time, H1299; format: cell-based
Procedure: as §2

α-synuclein [3] = test: Amount of alpha-synuclein in infected SH-SY5Y cells by Western blotting; format: cell-based; conditions: SH-SY5Y cells infected with alpha-synuclein-expressing adenovirus, normalized against actin
Procedure: as §1
Western Blotting: Following transfer of SDS gels onto NC membrane, all membranes were blocked with 5% non-fat milk in TBST (50 mM Tris-HCl pH7.4, 150 mM NaCl, 0.1% Tween 20), and incubated with primary antibody overnight with 1% BSA in TBST, washed three times with TBST, and incubated with horseradish peroxidase-conjugated secondary antibody for 1 hour (Promega). Bound antibodies were detected using enhanced chemiluminascence (NEM).
Since α-synuclein neurotoxicity is dose-dependent, it follows that accumulation of α-synuclein, caused by UCH-L1 farnesylation, should promote its toxicity. […] (F) Cell viability was assessed by the amount of metabolic activity using MTT assay. […]

UCH-L1 [4] = test: Pulse-chase experiment, UCH-L1 turnover in SH-SY5Y cells; format: cell-based; conditions: pulse-chase experiment not shown
From the text: Treatment with FTI-277 reduced the total amount of UCH-L1 in SH—SY5Y cells and increased its rate of turnover (pulse-chase experiment not shown), in addition to reducing the amount of membrane-associated protein.

[5] = biological target: the molecule itself; test: self-oligomerisation of purified protein, method not described
[6] = compared to cells treated with DMSO

For `CC(=O)N[C@@H](CSC(=O)[C@]1([C@@H](O)C(C)C)NC(=O)[C@H](C)[C@@H]1O)C(=O)O` [lactacysteine], which accumulation of alpha-synuclein (α-synuclein [1]) is on record?
The accumulation of alpha-synuclein was 100%.

With `COC(=O)[C@H](CCSC)NC(=O)c1ccc(NC[C@@H](N)CS)cc1-c1ccccc1` [FTI-277] as the molecule, how does the “alpha-synuclein toxicity (loss of cells / viability)” value (SH-SY5Y cells) read?
The value was “significantly decreased loss of cells; also recorded: rescued; also recorded: protects”.

And the “initial cell growth in H358” value (H358)?
The value was “induced initial toxicity”.

What about the “total amount of UCH-L1” value (UCH-L1 [2]) of the same molecule?
The value was “reduced”.

What about the “amount of cytosolic UCH-L1” value (UCH-L1 [2]; [6]) of the same molecule?
The value was “without affecting”.

What about the “amount of membrane bound UCH-L1” value (UCH-L1 [2]; [6]) of the same molecule?
The value was “significant decrease; also recorded: decreased; also recorded: reducing”.

What about the “initial cell growth in H1299” value (H1299; 100 nM FTI-277, vs DMSO control) of the same molecule?
The value was “promoted initial cell growth”.

What about the “H1299 cell growth after 24 hours of compound treatment” value (H1299; 100 nM FTI-277 or 5 μM LDN-57414) of the same molecule?
The value was “began to show toxicity”.

What about the amount of alpha-synuclein (α-synuclein [3]) of the same molecule?
Its amount of alpha-synuclein is “reduced; also recorded: reducing”.

And the “UCH-L1 rate of turnover” value (UCH-L1 [4])?
Its value is “increased”.

B1: UCH-L1 C220S mutant (S18 background), expressed in E. coli and purified (enzyme, UniProt P09936 1-223, looked up)
chain: MQLKPMEINPEMLNKVLSRLGVAGQWRFVDVLGLEEESLGSVPAPACALLLLFPLTAQHENFRKKQIEELKGQEVSPKVYFMKQTIGNSCGTIGLIHAVANNQDKLGFEDGSVLKQFLSETEKMSPEDRAKCFEKNEAIQAAHDAVAQEGQCRVDDKVNFHFILFNNVDGHLYELDGRMPFPVNHGASSEDTLLKDAAKVCREFTEREQGEVRFSAVALSKAA
notes: also called C220S variant
Does B1 bind [5]?
Result: binds
